The text below walks through data of patent US9732119B2, “Immunomodulators” (BRISTOL-MYERS SQUIBB COMPANY, priority 2014, dated 2017).

The structures appear in SMILES notation. Non-standard residues stand in square brackets, D forms with d. Residues, ends and D or L forms follow the SMILES beside them. Hyp = O=C(O)[C@@H]1C[C@@H](O)CN1; NMeNle = CCCC[C@H](NC)C(=O)O; NMeA = CN[C@@H](C)C(=O)O; Dab = NCC[C@H](N)C(=O)O; Dap = NC[C@H](N)C(=O)O; Sar = CNCC(=O)O

This assay addresses T1, PD-1-Ig binding to PD-L1-TVMV-His (PD-L1-His) (Homo sapiens, UniProt Q9NZQ7).
T1 construct: hPDL1(19-239)-TVMV-His; made in house; host or cells: HEK293T cells
As to the kind of experiment: PD-1/PD-L1 Homogenous Time-Resolved Fluorescence (HTRF) binding assay. The note with it: PD-1-Ig (20 nM) / PD-L1-His (10 nM). The text has this: The ability of the macrocyclic peptides of the present disclosure to bind to PD-L1 was investigated using a PD-1/PD-L1 Homogenous Time-Resolved Fluorescence (HTRF) binding assay.
Homogenous Time-Resolved Fluorescence (HTRF) Assays of Binding of Soluble PD-1 to Soluble PD-L1. Soluble PD-1 and soluble PD-L1 refers to proteins with carboxyl-end truncations that remove the transmembrane-spanning regions and are fused to heterologous sequences, specifically the Fc portion of the human immunoglobuling G sequence (Ig) or the hexahistidine epitope tag (His). All binding studies were performed in an HTRF assay buffer consisting of dPBS supplemented with 0.1% (w/v) bovine serum albumin and 0.05% (v/v) Tween-20. For the PD-1-Ig/PD-L1-His binding assay, inhibitors were pre-incubated with PD-L1-His (10 nM final) for 15 m in 4 μl of assay buffer, followed by addition of PD-1-Ig (20 nM final) in 1 μl of assay buffer and further incubation for 15 m. PD-L1 fusion proteins from either human, cynomologous macaques, mouse, or other species were used. HTRF detection was achieved using europium crypate-labeled anti-Ig monoclonal antibody (1 nM final) and allophycocyanin (APC) labeled anti-His monoclonal antibody (20 nM final). Antibodies were diluted in HTRF detection buffer and 5 μl was dispensed on top of binding reaction. […] Additional binding assays were established between PD-1-Ig/PD-L2-His (20 and 5 nM, respectively), CD80-His/PD-L1-Ig (100 and 10 nM, respectively) and CD80-His/CTLA4-Ig (10 and 5 nM, respectively).
Recombinant Proteins. […] Human PD-L2-His (Sino Biologicals), CD80-His (Sino Biologicals), CTLA4-Ig (RnD Systems) were all obtained through commercial sources.
On the technique in general: In TR-FRET formats the signal depends on donor and acceptor labels being close together.

T1 sequence (Q9NZQ7 with tags, fused parts or gaps): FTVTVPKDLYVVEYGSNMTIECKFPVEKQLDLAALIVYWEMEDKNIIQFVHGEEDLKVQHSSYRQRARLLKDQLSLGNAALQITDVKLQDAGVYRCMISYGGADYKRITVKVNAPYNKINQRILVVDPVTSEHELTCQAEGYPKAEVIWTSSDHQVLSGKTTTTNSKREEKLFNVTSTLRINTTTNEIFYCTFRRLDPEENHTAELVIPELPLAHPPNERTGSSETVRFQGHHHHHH

The IC50 is the concentration that gives 50% inhibition. For the compound `CCCC[C@H]1C(=O)N(C)[C@@H](CCCC)C(=O)N[C@@H](CC(C)C)C(=O)N(C)CC(=O)NCC(=O)N[C@@H](Cc2ccc(O)cc2)C(=O)N(C)[C@@H](C)C(=O)N[C@@H](CC(N)=O)C(=O)N2CCC[C@H]2C(=O)N[C@@H](CN)C(=O)N[C@@H](CC(C)C)C(=O)N2C[C@H](O)C[C@H]2C(=O)N[C@@H](Cc2c[nH]c3ccccc23)C(=O)N[C@@H](CCN)C(=O)N[C@@H](Cc2c[nH]c3ccccc23)C(=O)N1C` [Example 5009] (cyclo([Dab]W[NMeNle][NMeNle]L[Sar]GY[NMeA]NP[Dap]L[Hyp]W)), the IC50 (range classes) lay in the range of 1 to 9.9 nM.

The compound `CCCC[C@H]1C(=O)N(C)[C@@H](CCCC)C(=O)N[C@@H](CC(C)C)C(=O)N[C@H](C(=O)NCC(N)=O)CNCC(=O)N[C@@H](Cc2ccc(O)cc2)C(=O)N(C)[C@@H](C)C(=O)N[C@@H](CC(N)=O)C(=O)N2CCC[C@H]2C(=O)N[C@@H](CCC(N)=O)C(=O)N[C@@H](CC(C)C)C(=O)N2C[C@H](O)C[C@H]2C(=O)N[C@@H](Cc2c[nH]c3ccccc23)C(=O)N[C@@H](CC(N)=O)C(=O)N[C@@H](Cc2cn(CC(=O)O)c3ccccc23)C(=O)N1C` [Example 9005] had a concentration for half-maximal inhibition (IC50) (range classes) of 1 to 9.9 nM.

Compound `CCCC[C@H]1C(=O)N(C)[C@@H](CCCC)C(=O)N[C@@H](CC(C)C)C(=O)N[C@H](C(=O)NCC(N)=O)CNCC(=O)N[C@@H](Cc2ccc(O)cc2)C(=O)N(C)[C@@H](C)C(=O)N[C@@H](CC(N)=O)C(=O)N2CCC[C@H]2C(=O)N[C@@H](CCC(N)=O)C(=O)N[C@@H](CC(=O)O)C(=O)N2C[C@H](O)C[C@H]2C(=O)N[C@@H](Cc2c[nH]c3ccccc23)C(=O)N[C@@H](CC(N)=O)C(=O)N[C@@H](Cc2cn(CC(=O)O)c3ccccc23)C(=O)N1C` [Example 9006] gave a half-maximal inhibitory concentration (IC50) (range classes) of 1 to 9.9 nM.

For `CCCC[C@H]1C(=O)N(C)[C@@H](CCCC)C(=O)N[C@@H](CC(C)C)C(=O)N[C@H](C(=O)NCC(N)=O)CNCC(=O)N[C@@H](Cc2ccc(O)cc2)C(=O)N(C)[C@@H](C)C(=O)N[C@@H](CC(N)=O)C(=O)N2CCC[C@H]2C(=O)N[C@@H](CCC(N)=O)C(=O)N[C@@H](CCC(=O)O)C(=O)N2C[C@H](O)C[C@H]2C(=O)N[C@@H](Cc2c[nH]c3ccccc23)C(=O)N[C@@H](CC(N)=O)C(=O)N[C@@H](Cc2cn(CC(=O)O)c3ccccc23)C(=O)N1C` [Example 9007], the 50% inhibitory concentration (IC50) (numeric values) was 5 nM.

In the case of `CCCC[C@H]1C(=O)N(C)[C@@H](CCCC)C(=O)N[C@@H](CC(C)C)C(=O)N[C@H](C(=O)NCC(N)=O)CNCC(=O)N[C@@H](Cc2ccc(O)cc2)C(=O)N(C)[C@@H](C)C(=O)N[C@@H](CC(N)=O)C(=O)N2CCC[C@H]2C(=O)N[C@@H](CCC(N)=O)C(=O)N[C@@H](CCC(N)=O)C(=O)N2C[C@H](O)C[C@H]2C(=O)N[C@@H](Cc2c[nH]c3ccccc23)C(=O)N[C@@H](CC(N)=O)C(=O)N[C@@H](Cc2cn(CC(=O)O)c3ccccc23)C(=O)N1C` [Example 9008], where the note is “range classes”, the IC50 is 1 to 9.9 nM.

Under “range classes”, `CCCC[C@H]1C(=O)N(C)[C@@H](CCCC)C(=O)N[C@@H](CC(C)C)C(=O)N[C@H](C(=O)NCC(N)=O)CNCC(=O)N[C@@H](Cc2ccc(F)cc2)C(=O)N(C)[C@@H](C)C(=O)N[C@@H](CC(N)=O)C(=O)N2CCC[C@H]2C(=O)N[C@@H](CCC(N)=O)C(=O)N[C@@H](CC(C)C)C(=O)N2C[C@H](O)C[C@H]2C(=O)N[C@@H](Cc2c[nH]c3ccccc23)C(=O)N[C@@H](CC(N)=O)C(=O)N[C@@H](Cc2cn(CC(=O)O)c3ccccc23)C(=O)N1C` [Example 9009] displayed a 50% inhibitory concentration (IC50) of 1 to 9.9 nM.

On to `CCCC[C@H]1C(=O)N(C)[C@@H](CCCC)C(=O)N[C@@H](CC(C)C)C(=O)N[C@H](C(=O)NCC(N)=O)CNCC(=O)N[C@@H](Cc2ccc(F)cc2)C(=O)N(C)[C@@H](C)C(=O)N[C@@H](CC(N)=O)C(=O)N2CCC[C@H]2C(=O)N[C@@H](CCC(N)=O)C(=O)N[C@@H](CC(=O)O)C(=O)N2C[C@H](O)C[C@H]2C(=O)N[C@@H](Cc2c[nH]c3ccccc23)C(=O)N[C@@H](CC(N)=O)C(=O)N[C@@H](Cc2cn(CC(=O)O)c3ccccc23)C(=O)N1C` [Example 9010], for which, under “range classes”, the concentration for half-maximal inhibition (IC50) lay in the range of 10 to 99 nM.

Take `CCCC[C@H]1C(=O)N(C)[C@@H](CCCC)C(=O)N[C@@H](CC(C)C)C(=O)N[C@H](C(=O)NCC(N)=O)CNCC(=O)N[C@@H](Cc2ccc(F)cc2)C(=O)N(C)[C@@H](C)C(=O)N[C@@H](CC(N)=O)C(=O)N2CCC[C@H]2C(=O)N[C@@H](CCC(N)=O)C(=O)N[C@@H](CCC(=O)O)C(=O)N2C[C@H](O)C[C@H]2C(=O)N[C@@H](Cc2c[nH]c3ccccc23)C(=O)N[C@@H](CC(N)=O)C(=O)N[C@@H](Cc2cn(CC(=O)O)c3ccccc23)C(=O)N1C` [Example 9011]: where the note is “range classes”, the half-maximal inhibitory concentration (IC50) is 10 to 99 nM.

`CCCC[C@H]1C(=O)N(C)[C@@H](CCCC)C(=O)N[C@@H](CC(C)C)C(=O)N[C@H](C(=O)NCC(N)=O)CNCC(=O)N[C@@H](Cc2ccc(O)cc2)C(=O)N(C)[C@@H](C)C(=O)N[C@@H](CC(=O)O)C(=O)N2CCC[C@H]2C(=O)N[C@@H](CCC(N)=O)C(=O)N[C@@H](CC(C)C)C(=O)N2C[C@H](O)C[C@H]2C(=O)N[C@@H](Cc2c[nH]c3ccccc23)C(=O)N[C@@H](CC(N)=O)C(=O)N[C@@H](Cc2cn(CC(=O)O)c3ccccc23)C(=O)N1C` [Example 9012] registered a half-maximal inhibitory concentration (IC50) (range classes) of 10 to 99 nM.

The compound `CCCC[C@H]1C(=O)N(C)[C@@H](CCCC)C(=O)N[C@@H](CC(C)C)C(=O)N[C@H](C(=O)NCC(N)=O)CNCC(=O)N[C@@H](Cc2ccc(O)cc2)C(=O)N(C)[C@@H](C)C(=O)N[C@@H](CC(=O)O)C(=O)N2CCC[C@H]2C(=O)N[C@@H](CCC(N)=O)C(=O)N[C@@H](CC(=O)O)C(=O)N2C[C@H](O)C[C@H]2C(=O)N[C@@H](Cc2c[nH]c3ccccc23)C(=O)N[C@@H](CC(N)=O)C(=O)N[C@@H](Cc2cn(CC(=O)O)c3ccccc23)C(=O)N1C` [Example 9013] registered an IC50 (range classes) of 10 to 99 nM.

Regarding `CCCC[C@H]1C(=O)N(C)[C@@H](CCCC)C(=O)N[C@@H](CC(C)C)C(=O)N[C@H](C(N)=O)CNCC(=O)N[C@@H](Cc2ccc(O)cc2)C(=O)N2CCCC[C@H]2C(=O)N[C@@H](CC(=O)O)C(=O)N2CCC[C@H]2C(=O)N[C@@H](CCC(N)=O)C(=O)N[C@@H](CCC(=O)O)C(=O)N2C[C@H](O)C[C@H]2C(=O)N[C@@H](Cc2c[nH]c3ccccc23)C(=O)N[C@@H](CC(N)=O)C(=O)N[C@@H](Cc2cn(CC(=O)O)c3ccccc23)C(=O)N1C` [Example 9014], the IC50 (range classes) was 1 to 9.9 nM.

In turn, `CCCC[C@H]1C(=O)N(C)[C@@H](CCCC)C(=O)N[C@@H](CC(C)C)C(=O)N[C@H](C(=O)NCC(N)=O)CNCC(=O)N[C@@H](Cc2ccc(F)cc2)C(=O)N(C)[C@@H](C)C(=O)N[C@@H](CC(=O)O)C(=O)N2CCC[C@H]2C(=O)N[C@@H](CCC(N)=O)C(=O)N[C@@H](CC(=O)O)C(=O)N2C[C@H](O)C[C@H]2C(=O)N[C@@H](Cc2c[nH]c3ccccc23)C(=O)N[C@@H](CC(N)=O)C(=O)N[C@@H](Cc2cn(CC(=O)O)c3ccccc23)C(=O)N1C` [Example 9015] had a concentration for half-maximal inhibition (IC50) (numeric values) of 15 nM.

`CCCC[C@H]1C(=O)N(C)[C@@H](CCCC)C(=O)N[C@@H](CC(C)C)C(=O)N[C@H](C(=O)NCC(N)=O)CNCC(=O)N[C@@H](Cc2ccc(F)cc2)C(=O)N(C)[C@@H](C)C(=O)N[C@@H](CC(=O)O)C(=O)N2CCC[C@H]2C(=O)N[C@@H](CCC(N)=O)C(=O)N[C@@H](CCC(=O)O)C(=O)N2C[C@H](O)C[C@H]2C(=O)N[C@@H](Cc2c[nH]c3ccccc23)C(=O)N[C@@H](CC(N)=O)C(=O)N[C@@H](Cc2cn(CC(=O)O)c3ccccc23)C(=O)N1C` [Example 9016] came in with a half-maximal inhibitory concentration (IC50) (range classes) of 1 to 9.9 nM.

Consider `CCCC[C@H]1C(=O)N(C)[C@@H](CCCC)C(=O)N[C@@H](CC(C)C)C(=O)N[C@H](C(=O)NCC(N)=O)CNCC(=O)N[C@@H](Cc2ccc(F)cc2)C(=O)N(C)[C@@H](C)C(=O)N[C@@H](CC(=O)O)C(=O)N2CCC[C@H]2C(=O)N[C@@H](CCC(N)=O)C(=O)N[C@@H](CCC(N)=O)C(=O)N2C[C@H](O)C[C@H]2C(=O)N[C@@H](Cc2c[nH]c3ccccc23)C(=O)N[C@@H](CC(N)=O)C(=O)N[C@@H](Cc2cn(CC(=O)O)c3ccccc23)C(=O)N1C` [Example 9017], for which, for the setting “range classes”, the IC50 fell in the range of 10 to 99 nM.

Consider `CCCC[C@H]1C(=O)N(C)[C@@H](CCCC)C(=O)N[C@@H](CCC(=O)O)C(=O)N[C@H](C(=O)NCC(N)=O)CNCC(=O)N[C@@H](Cc2ccc(O)cc2)C(=O)N(C)[C@@H](C)C(=O)N[C@@H](CC(N)=O)C(=O)N2CCC[C@H]2C(=O)N[C@@H](CCC(N)=O)C(=O)N[C@@H](CC(C)C)C(=O)N2C[C@H](O)C[C@H]2C(=O)N[C@@H](Cc2c[nH]c3ccccc23)C(=O)N[C@@H](CC(N)=O)C(=O)N[C@@H](Cc2cn(CC(=O)O)c3ccccc23)C(=O)N1C` [Example 9018], for which, for the setting “range classes”, the IC50 was 1 to 9.9 nM.

`CCCC[C@H]1C(=O)N(C)[C@@H](CCCC)C(=O)N[C@@H](CCC(=O)O)C(=O)N[C@H](C(=O)NCC(N)=O)CNCC(=O)N[C@@H](Cc2ccc(O)cc2)C(=O)N(C)[C@@H](C)C(=O)N[C@@H](CC(N)=O)C(=O)N2CCC[C@H]2C(=O)N[C@@H](CCC(N)=O)C(=O)N[C@@H](CC(=O)O)C(=O)N2C[C@H](O)C[C@H]2C(=O)N[C@@H](Cc2c[nH]c3ccccc23)C(=O)N[C@@H](CC(N)=O)C(=O)N[C@@H](Cc2cn(CC(=O)O)c3ccccc23)C(=O)N1C` [Example 9019] showed an IC50 (range classes) of 1 to 9.9 nM.
